Here are results for two molecules from BindingDB's records for doi:10.1021/jm048962u (The Burnham Institute, 2005).

In this test the target is RAC-alpha serine/threonine-protein kinase (Homo sapiens, UniProt P31749). The experiment in a line: Z-LYTE Kinase Assy. The settings on record: pH 7.5; 25 °C. The source says: The Z-LYTE assay (Invitrogen Corporation) employs a FRET-based, coupled-enzyme format and is based on the differential sensitivity of phosphorylated and non-phosphorylated peptides to proteolytic cleavage. A site-specific protease recognizes and cleaves nonphosphorylated peptides. […] Cleavage disrupts FRET between the donor (coumarin) and acceptor (fluorescein) fluorophores on the peptide, whereas uncleaved, phosphorylated peptides maintain FRET. The ratio of donor emission to acceptor emission after excitation of the donor fluorophore at 400 nm, quantitates reaction progress.
Sequence of RAC-alpha serine/threonine-protein kinase (P31749 whole entry): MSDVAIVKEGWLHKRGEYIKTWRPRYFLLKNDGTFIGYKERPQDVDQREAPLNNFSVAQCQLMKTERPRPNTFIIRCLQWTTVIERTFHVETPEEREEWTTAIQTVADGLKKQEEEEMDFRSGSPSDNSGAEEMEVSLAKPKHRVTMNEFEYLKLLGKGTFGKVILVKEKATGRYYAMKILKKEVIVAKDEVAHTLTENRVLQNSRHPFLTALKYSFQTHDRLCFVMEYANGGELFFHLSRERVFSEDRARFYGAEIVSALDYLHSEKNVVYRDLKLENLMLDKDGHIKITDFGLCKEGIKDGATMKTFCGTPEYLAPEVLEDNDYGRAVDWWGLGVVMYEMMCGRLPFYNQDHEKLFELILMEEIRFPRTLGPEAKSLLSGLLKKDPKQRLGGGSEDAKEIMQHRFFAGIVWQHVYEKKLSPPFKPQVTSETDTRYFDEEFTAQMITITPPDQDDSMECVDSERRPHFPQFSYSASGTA

In general, IC50 refers to the concentration that gives 50% inhibition. The Ki is the dissociation constant of the complex between target and ligand, obtained from inhibition or displacement. Low values mean a stronger hold on the target, high ones a looser hold on the target. `C=c1c(C#N)c2[nH]c(N)c(C#N)c(C)c-2c1=Cc1ccc(-c2ccc(C(=O)O)c(Cl)c2)o1` showed an IC50 of 2.6 µM and an inhibition constant Ki of 1.1 µM. `C=c1c(C#N)c2[nH]c(N)c(C#N)c(C)c-2c1=Cc1ccc(-c2cccc(C(=O)O)c2)o1` [3-(5-{[(5E)-2-amino-3,7-dicyano-4,6-dimethyl-5H-cyclopenta[b]pyridin-5-ylidene]methyl}furan-2-yl)benzoic acid] returned an IC50 of 60.2 µM.
